Source: patent US8293292B2, “Extract of Fraxinus excelsior seeds and therapeutic applications therefor” (Naturex, S.A., priority 2008, dated 2012)

Key:
[1] = target: T1, PPAR-alpha (Homo sapiens, UniProt Q07869); assay: PPAR-alpha activation in reporter cell lines; format: cell-based; conditions: concentration of 10^−4 M
T1 sequence (Q07869 1-468): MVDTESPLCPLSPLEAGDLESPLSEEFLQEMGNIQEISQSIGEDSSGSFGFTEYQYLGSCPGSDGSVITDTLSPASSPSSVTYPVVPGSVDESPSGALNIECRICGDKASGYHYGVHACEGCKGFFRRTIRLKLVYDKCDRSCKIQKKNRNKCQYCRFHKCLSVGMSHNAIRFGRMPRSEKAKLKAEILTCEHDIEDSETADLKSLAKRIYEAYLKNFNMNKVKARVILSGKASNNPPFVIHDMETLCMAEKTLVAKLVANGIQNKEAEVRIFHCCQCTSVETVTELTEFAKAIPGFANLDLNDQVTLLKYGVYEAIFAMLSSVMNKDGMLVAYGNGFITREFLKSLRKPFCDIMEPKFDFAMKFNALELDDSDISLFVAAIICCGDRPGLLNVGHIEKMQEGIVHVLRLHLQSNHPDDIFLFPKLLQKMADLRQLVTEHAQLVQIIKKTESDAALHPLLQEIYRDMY
Source text: FIG. 6 illustrates relative PPARα activation potential (%) in reporter cell lines using concentrations ranging from 10^−5M-10^−9M for the selective synthetic PPARα activator WY14,643 as well as the isolated compounds at a concentration of 10^−4M and a 1:10 aqueous solution of FE seed extract, with compound label: FE19028 (Nuzhenide, 3), FE20015 (G13, 4), FE20031 (oleoside dimethyl ester, 6), FE21008 (excelside A, 1), and FE21023 (GI5, 5);
PPAR-alpha activity of excelside A (1), GI3 (4), and oleoside dimethyl ester (6). Five single compounds isolated from Fraxinus excelsior (FE) seed water extract were tested for PPAR-alpha activity. The synthetic and selective PPAR alpha activator WY14,643 served as positive control and DMSO which was used to dissolve these compounds as negative control in the assay.

[2] = test system: 3T3-L1 cells; assay: adipogenesis inhibition, glucose uptake of MDI-induced 3T3-L1 preadipocytes; format: cell-based; conditions: 0.004%, 0.02%, 0.05%, 0.1%; glucose uptake ten days after differentiation induction
Source text: Inhibitory effect of GI5 (5) and nuzhenide (3) on undifferentiated 3T3-L1 cells. The major component of weight gain is deposition of adipose tissue in body through the adipogenesis process. Adipogenesis is characterized by increase in the size and number of fat cells. The secoiridoids, GI5 and nuzhenide isolated from F. excelsior, have shown significant and mild adipogenesis inhibitory activity, respectively, by blocking the pathway from undifferentiated 3T3-L1 cell to differentiated adipocyte to achieve an effect on bodyweight control and body fat loss. 3T3-L1 preadipocytes were induced to differentiate with methylisobutylxanthine, dexamethasone, and insulin (MDI) hormonal cocktail in the presence or absence of compounds. Ten days after differentiation induction, the treated cells were assayed for their respective glucose uptake activity, which is an indirect measurement of differentiation (adipogenesis) because preadipocytes are incapable of insulin-induced, glucose transport-4 (GLUT4)-mediated glucose uptake while fully differentiate adipocytes are capable of this uptake. Compounds, GI5 and nuzhenide, were used at four different concentrations: 0.004%, 0.02%, 0.05%, and 0.1%. Untreated (undifferentiated) cells were used as a negative control while insulin was used as a positive control. Methanol (MeOH), the solvent of the compounds, was also used as a control.

Structure (SMILES)	PPAR-alpha activity [1]	adipogenesis inhibitory activity [2]
C/C=C1/[C@H](O[C@@H]2O[C@H](CO[C@@H]3O[C@H](CO)[C@@H](O)[C@H](O)[C@H]3O)[C@@H](O)[C@H](O)[C@H]2O)OC=C(C(=O)OC)[C@H]1CC(=O)OC [excelside A, (2S,3E,4S) 2H-Pyran-4-acetic acid-3-ethylidene-2-[(6-O-β-D-glucopyranosyl-β-D-glucopyranosyl)oxy]-3,4-dihydro-5-(methoxycarbonyl)methyl ester]	good activity	–
C/C=C1\C(CC(=O)OC[C@H]2O[C@@H](OCCc3ccc(O)cc3)[C@H](O)[C@@H](O)[C@@H]2O)C(C(=O)OC)=CO[C@H]1O[C@@H]1O[C@H](CO)[C@@H](O)[C@H](O)[C@H]1O (stereo partly drawn) [nuzhenide]	–	mild
C/C=C1\[C@H](O[C@@H]2O[C@H](CO)[C@@H](O)[C@H](O)[C@H]2O)OC=C(C(=O)OC)[C@H]1CC(=O)OC [oleoside dimethyl ester]	good activity	–
